Measured values taken from ChEMBL document CHEMBL5537172 (J Med Chem, 2024).
Activity calls are given as the source filed them. No cut-off for these calls is given here.

Tests used:
[1] = Volume of distribution at steady state in rat at 1 mg/kg, iv measured upto 24 hrs by LC-MS/MS analysis; assay type: ADME, organism-based; details: in vivo, read-out: Vdss
[2] = AUCinfinity in rat at 1 mg/kg, iv measured upto 24 hrs by LC-MS/MS analysis; assay type: ADME, organism-based; details: in vivo
[3] = target: T1, Protein kinase C beta type (Homo sapiens, UniProt P05771); experiment: Inhibition of PKCbeta2 (unknown origin)
[4] = target: Protein kinase C gamma type (Homo sapiens, UniProt P05129); experiment: Inhibition of PKCgamma (unknown origin)
[5] = Tmax in rat at 3 mg/kg, po measured upto 24 hrs by LC-MS/MS analysis; assay type: ADME, organism-based; details: in vivo
[6] = AUCinfinity in rat at 3 mg/kg, po measured upto 24 hrs by LC-MS/MS analysis; assay type: ADME, organism-based; details: in vivo
[7] = Clearance in rat at 1 mg/kg, iv measured upto 24 hrs by LC-MS/MS analysis; assay type: ADME, organism-based; details: in vivo
[8] = Cmax in dog at 3 mg/kg, po measured upto 24 hrs by LC-MS/MS analysis; assay type: ADME, organism-based, Canis lupus familiaris; details: in vivo
SK-MEL-28 = experiment: cells; details: Homo sapiens
[9] = target: 5-hydroxytryptamine receptor 2B (Homo sapiens, UniProt P41595); experiment: Agonist activity at 5HT2B (unknown origin); assay type: toxicity
[10] = Volume of distribution at steady state in mouse at 1 mg/kg, iv measured upto 24 hrs by LC-MS/MS analysis; assay type: ADME, organism-based; details: in vivo, read-out: Vdss
92-1 [11] = experiment: Antitumor activity against human 92-1 cells xenografted in po dosed mouse assessed as tumor suppression administered twice daily; assay type: functional, organism-based; details: dose lower […], dose upper 75.0 mg/kg
[12] = Oral bioavailability in dog at 3 mg/kg measured upto 24 hrs by LC-MS/MS analysis; assay type: ADME, organism-based, Canis lupus familiaris; details: in vivo
[13] = Tmax in dog at 3 mg/kg, po measured upto 24 hrs by LC-MS/MS analysis; assay type: ADME, organism-based, Canis lupus familiaris; details: in vivo
[14] = Toxicity in mouse xenografted with human 92-1 cells assessed as body weight loss at 15 to 150 mg/kg, po bid; assay type: organism-based; details: in vivo, dose 15-150 mg/kg
[15] = Half-life in dog at 0.3 mg/kg, iv measured upto 24 hrs by LC-MS/MS analysis; assay type: ADME, organism-based, Canis lupus familiaris; details: in vivo
[16] = Clearance in mouse at 1 mg/kg, iv measured upto 24 hrs by LC-MS/MS analysis; assay type: ADME, organism-based; details: in vivo
Mus musculus = experiment: In vivo inhibition of PKCdelta in mouse xenografted with human 92-1 cells assessed as reduction in phosphorylated levels at 15 to 72 mg/kg, po; assay type: functional, organism-based; details: dose lower […], dose upper […]
[17] = target: Protein kinase C delta type (Homo sapiens, UniProt Q05655); experiment: Inhibition of PKCdelta (unknown origin)
[18] = AUCinfinity in dog at 0.3 mg/kg, iv measured upto 24 hrs by LC-MS/MS analysis; assay type: ADME, organism-based, Canis lupus familiaris; details: in vivo
[19] = Oral bioavailability in rat at 3 mg/kg measured upto 24 hrs by LC-MS/MS analysis; assay type: ADME, organism-based; details: in vivo
[20] = Cmax in rat at 3 mg/kg, po measured upto 24 hrs by LC-MS/MS analysis; assay type: ADME, organism-based; details: in vivo
cells = details: Homo sapiens, 92-1, 72 h
[21] = Half life in mouse at 1 mg/kg, iv measured upto 24 hrs by LC-MS/MS analysis; assay type: ADME, organism-based; details: in vivo
[22] = Oral bioavailability in mouse at 10 mg/kg measured upto 24 hrs by LC-MS/MS analysis; assay type: ADME, organism-based; details: in vivo
[23] = target: Protein kinase C eta type (Homo sapiens, UniProt P24723); experiment: Inhibition of PKCeta (unknown origin)
[24] = Tmax in mouse at 10 mg/kg, po measured upto 24 hrs by LC-MS/MS analysis; assay type: ADME, organism-based; details: in vivo
[25] = Clearance in dog at 0.3 mg/kg, iv measured upto 24 hrs by LC-MS/MS analysis; assay type: ADME, organism-based, Canis lupus familiaris; details: in vivo
[26] = Half-life in rat at 1 mg/kg, iv measured upto 24 hrs by LC-MS/MS analysis; assay type: ADME, organism-based; details: in vivo
92-1 [27] = experiment: Antitumor activity against human 92-1 cells xenografted in mouse assessed as tumor suppression at 75 to 150 mg/kg, po administered twice daily; assay type: functional, organism-based; details: dose lower 75.0 mg/kg, dose upper […]
[28] = AUCinfinity in dog at 3 mg/kg, po measured upto 24 hrs by LC-MS/MS analysis; assay type: ADME, organism-based, Canis lupus familiaris; details: in vivo
[29] = Dissociation constant, pKa of compound; assay type: physicochemical
[30] = Toxicity in mouse xenografted with human 92-1 cells assessed as body weight loss at 75 to 150 mg/kg, po bid; assay type: organism-based; details: in vivo, dose 75-150 mg/kg
92-1 [31] = experiment: Antitumor activity against human 92-1 cells xenografted in mouse assessed as tumor suppression at 75 mg/kg, po administered twice daily measured after compound withdrawal; assay type: functional, organism-based
[32] = Volume of distribution at steady state in dog at 0.3 mg/kg, iv measured upto 24 hrs by LC-MS/MS analysis; assay type: ADME, organism-based, Canis lupus familiaris; details: in vivo, read-out: Vdss
[33] = target: T2, Protein kinase C epsilon type (Homo sapiens, UniProt Q02156); experiment: Inhibition of PKCepsilon (unknown origin)
T2 sequence (Q02156 whole entry): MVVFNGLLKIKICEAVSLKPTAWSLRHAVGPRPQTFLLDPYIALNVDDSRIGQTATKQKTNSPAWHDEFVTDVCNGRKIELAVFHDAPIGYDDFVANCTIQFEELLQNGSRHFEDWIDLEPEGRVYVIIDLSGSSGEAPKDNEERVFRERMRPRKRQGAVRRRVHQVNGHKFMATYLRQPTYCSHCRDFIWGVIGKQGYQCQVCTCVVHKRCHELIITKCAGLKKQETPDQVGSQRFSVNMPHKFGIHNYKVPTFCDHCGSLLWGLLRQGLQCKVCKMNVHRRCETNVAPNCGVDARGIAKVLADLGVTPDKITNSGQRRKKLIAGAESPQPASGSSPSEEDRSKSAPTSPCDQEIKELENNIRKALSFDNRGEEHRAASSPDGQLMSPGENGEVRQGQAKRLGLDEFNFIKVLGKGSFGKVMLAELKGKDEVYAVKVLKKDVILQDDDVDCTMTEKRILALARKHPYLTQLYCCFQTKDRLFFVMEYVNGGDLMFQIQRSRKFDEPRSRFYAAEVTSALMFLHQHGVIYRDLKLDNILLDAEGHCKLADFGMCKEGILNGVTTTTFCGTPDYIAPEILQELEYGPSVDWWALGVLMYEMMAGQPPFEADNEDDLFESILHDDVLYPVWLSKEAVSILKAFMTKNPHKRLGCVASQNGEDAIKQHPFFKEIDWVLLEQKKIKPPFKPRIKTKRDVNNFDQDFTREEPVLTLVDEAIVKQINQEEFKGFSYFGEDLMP

[34] = Cmax in mouse at 10 mg/kg, po measured upto 24 hrs by LC-MS/MS analysis; assay type: ADME, organism-based; details: in vivo
[35] = AUCinfinity in mouse at 1 mg/kg, iv measured upto 24 hrs by LC-MS/MS analysis; assay type: ADME, organism-based; details: in vivo
[36] = AUCinfinity in mouse at 10 mg/kg, po measured upto 24 hrs by LC-MS/MS analysis; assay type: ADME, organism-based; details: in vivo
[37] = target: T1, Protein kinase C beta type; experiment: Inhibition of PKCbeta1 (unknown origin)
[38] = target: T3, Protein kinase C theta type (Homo sapiens, UniProt Q04759); experiment: Inhibition of PKCtheta (unknown origin)
92-1 [39] = experiment: Antitumor activity against human 92-1 cells xenografted in mouse assessed as tumor suppression at 120 mg/kg, bid; assay type: functional, organism-based
[40] = target: T3, Protein kinase C theta type; experiment: Inhibition of PKCtheta (unknown origin) incubated for 15 mins in presence of 33P-ATP by Topcount scintillation counting method

T1 sequence (P05771 whole entry): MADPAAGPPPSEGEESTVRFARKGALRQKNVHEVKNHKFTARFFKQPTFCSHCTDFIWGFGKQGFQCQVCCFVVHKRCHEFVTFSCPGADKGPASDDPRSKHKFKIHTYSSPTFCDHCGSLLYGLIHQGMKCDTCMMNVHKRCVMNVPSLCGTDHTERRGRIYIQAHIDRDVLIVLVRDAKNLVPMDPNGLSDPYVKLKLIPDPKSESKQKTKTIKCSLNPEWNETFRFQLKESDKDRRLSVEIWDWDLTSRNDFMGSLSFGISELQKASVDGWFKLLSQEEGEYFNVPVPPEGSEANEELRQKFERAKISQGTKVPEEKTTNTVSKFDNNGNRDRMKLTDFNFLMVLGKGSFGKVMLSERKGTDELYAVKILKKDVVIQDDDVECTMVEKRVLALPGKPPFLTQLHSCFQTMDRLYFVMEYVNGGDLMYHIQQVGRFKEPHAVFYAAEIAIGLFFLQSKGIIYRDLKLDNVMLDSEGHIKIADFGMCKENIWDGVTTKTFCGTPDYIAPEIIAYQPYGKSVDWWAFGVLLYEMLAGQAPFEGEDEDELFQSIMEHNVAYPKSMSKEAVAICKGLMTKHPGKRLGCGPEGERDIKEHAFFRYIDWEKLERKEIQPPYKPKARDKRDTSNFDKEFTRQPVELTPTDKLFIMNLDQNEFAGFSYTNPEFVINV
Sequence of Protein kinase C delta type (Q05655 whole entry): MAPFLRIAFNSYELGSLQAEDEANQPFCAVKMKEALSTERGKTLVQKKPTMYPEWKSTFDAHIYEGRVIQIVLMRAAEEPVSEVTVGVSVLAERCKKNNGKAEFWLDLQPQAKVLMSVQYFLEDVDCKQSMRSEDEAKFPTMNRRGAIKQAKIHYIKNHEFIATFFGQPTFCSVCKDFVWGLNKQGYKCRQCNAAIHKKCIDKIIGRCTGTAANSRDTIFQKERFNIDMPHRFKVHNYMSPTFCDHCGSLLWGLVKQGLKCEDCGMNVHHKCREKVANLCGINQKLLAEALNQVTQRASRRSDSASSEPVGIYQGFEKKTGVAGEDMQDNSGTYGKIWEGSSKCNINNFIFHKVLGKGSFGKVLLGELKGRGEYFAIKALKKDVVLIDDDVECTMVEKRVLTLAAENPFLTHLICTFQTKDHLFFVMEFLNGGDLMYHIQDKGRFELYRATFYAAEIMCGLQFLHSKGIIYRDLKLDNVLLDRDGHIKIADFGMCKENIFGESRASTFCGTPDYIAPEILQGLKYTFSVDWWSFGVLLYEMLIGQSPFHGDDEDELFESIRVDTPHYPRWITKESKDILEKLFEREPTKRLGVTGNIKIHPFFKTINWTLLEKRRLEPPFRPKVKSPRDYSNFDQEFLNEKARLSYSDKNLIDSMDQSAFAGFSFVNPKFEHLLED
Sequence of Protein kinase C eta type (P24723 whole entry): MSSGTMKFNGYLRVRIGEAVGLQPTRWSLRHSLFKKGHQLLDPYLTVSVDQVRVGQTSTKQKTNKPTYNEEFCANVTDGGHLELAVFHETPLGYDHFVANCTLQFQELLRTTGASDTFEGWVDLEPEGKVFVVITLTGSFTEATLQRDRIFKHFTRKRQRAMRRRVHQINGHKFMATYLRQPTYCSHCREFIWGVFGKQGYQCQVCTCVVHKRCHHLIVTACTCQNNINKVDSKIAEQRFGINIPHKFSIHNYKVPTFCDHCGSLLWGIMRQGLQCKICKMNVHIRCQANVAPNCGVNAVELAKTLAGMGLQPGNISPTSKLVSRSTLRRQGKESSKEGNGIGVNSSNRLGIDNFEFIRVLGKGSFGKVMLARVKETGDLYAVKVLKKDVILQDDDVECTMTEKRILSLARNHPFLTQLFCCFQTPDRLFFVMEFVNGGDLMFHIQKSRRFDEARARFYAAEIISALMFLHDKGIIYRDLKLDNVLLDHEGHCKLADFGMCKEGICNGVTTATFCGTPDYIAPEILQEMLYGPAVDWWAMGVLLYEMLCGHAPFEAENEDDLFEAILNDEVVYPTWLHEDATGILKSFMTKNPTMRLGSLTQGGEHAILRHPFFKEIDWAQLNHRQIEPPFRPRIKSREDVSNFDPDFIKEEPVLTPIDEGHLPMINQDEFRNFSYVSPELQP
T3 sequence (Q04759 whole entry): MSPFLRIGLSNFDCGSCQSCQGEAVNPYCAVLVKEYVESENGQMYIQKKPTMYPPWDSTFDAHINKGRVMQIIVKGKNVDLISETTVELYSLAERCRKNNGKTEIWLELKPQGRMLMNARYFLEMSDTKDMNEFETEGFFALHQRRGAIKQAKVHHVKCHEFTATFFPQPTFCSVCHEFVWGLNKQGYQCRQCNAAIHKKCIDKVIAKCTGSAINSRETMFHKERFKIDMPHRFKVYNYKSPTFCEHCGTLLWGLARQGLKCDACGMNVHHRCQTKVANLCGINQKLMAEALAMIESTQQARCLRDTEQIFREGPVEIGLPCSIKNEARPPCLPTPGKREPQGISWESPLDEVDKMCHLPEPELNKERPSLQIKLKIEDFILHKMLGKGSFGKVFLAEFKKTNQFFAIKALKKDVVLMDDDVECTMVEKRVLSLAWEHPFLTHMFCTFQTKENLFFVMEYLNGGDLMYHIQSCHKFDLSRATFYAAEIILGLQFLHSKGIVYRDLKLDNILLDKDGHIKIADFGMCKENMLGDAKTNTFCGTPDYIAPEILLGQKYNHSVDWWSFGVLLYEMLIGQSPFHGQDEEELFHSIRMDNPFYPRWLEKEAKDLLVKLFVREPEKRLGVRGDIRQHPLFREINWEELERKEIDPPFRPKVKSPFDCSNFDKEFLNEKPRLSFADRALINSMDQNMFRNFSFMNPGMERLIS
Sequence of 5-hydroxytryptamine receptor 2B (P41595 whole entry): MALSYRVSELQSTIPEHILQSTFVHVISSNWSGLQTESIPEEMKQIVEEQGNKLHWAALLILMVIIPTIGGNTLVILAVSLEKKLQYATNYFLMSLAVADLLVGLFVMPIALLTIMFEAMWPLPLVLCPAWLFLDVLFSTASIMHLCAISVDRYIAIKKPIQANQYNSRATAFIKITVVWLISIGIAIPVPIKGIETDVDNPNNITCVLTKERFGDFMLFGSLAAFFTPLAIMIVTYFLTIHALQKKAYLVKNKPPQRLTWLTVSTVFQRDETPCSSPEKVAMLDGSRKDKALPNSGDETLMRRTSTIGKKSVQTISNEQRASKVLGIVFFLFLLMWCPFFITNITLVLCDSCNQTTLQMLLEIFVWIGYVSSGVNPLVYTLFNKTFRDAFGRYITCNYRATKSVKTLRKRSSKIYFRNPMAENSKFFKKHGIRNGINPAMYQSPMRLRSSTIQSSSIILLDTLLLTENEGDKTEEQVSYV

**Q.** Which Vd [1] does the source give for CC1(N)CCN(c2cccnc2NC(=O)c2nc(-c3ncccc3C(F)(F)F)cnc2N)CC1 [DAROVASERTIB] here?
**A.** The Vd was 3.4 L/kg.

**Q.** What about the AUC(0-inf) [2] of the same molecule?
**A.** The AUC(0-inf) was 1.45 µM·h.

**Q.** And the IC50 [3]?
**A.** Its IC50 is 58 nM.

**Q.** And the IC50 [4]?
**A.** The IC50 was 109 nM.

**Q.** What about the Tmax [5] of the same molecule?
**A.** The Tmax was 0.3 h.

**Q.** And the AUC(0-inf) [6]?
**A.** The AUC(0-inf) was 2.39 µM·h.

**Q.** And the clearance [7]?
**A.** The clearance was 24 mL/min/kg.

**Q.** And the Cmax [8]?
**A.** Its Cmax is 6120 nM.

**Q.** And the IC50 (SK-MEL-28)?
**A.** Its IC50 is greater than 10000 nM.

**Q.** What about the EC50 [9] of the same molecule?
**A.** The EC50 was greater than 30000 nM.

**Q.** What about the Vd [10] of the same molecule?
**A.** Its Vd is 1.6 L/kg.

**Q.** And the Activity (92-1 [11])?
**A.** The Activity was “Dose-Dependent Effect”.

**Q.** What about the bioavailability [12] of the same molecule?
**A.** Its bioavailability is 76%.

**Q.** What about the Tmax [13] of the same molecule?
**A.** Its Tmax is 0.5 h.

**Q.** And the Activity [14]?
**A.** Its Activity is “Non-Toxic”.

**Q.** What about the half-life [15] of the same molecule?
**A.** Its half-life is 4.4 h.

**Q.** And the clearance [16]?
**A.** The clearance was 26 mL/min/kg.

**Q.** And the Activity (Mus musculus)?
**A.** The Activity was “Active”.

**Q.** What about the IC50 [17] of the same molecule?
**A.** Its IC50 is 6.9 nM.

**Q.** What about the AUC(0-inf) [18] of the same molecule?
**A.** The AUC(0-inf) was 2.59 µM·h.

**Q.** What about the bioavailability [19] of the same molecule?
**A.** Its bioavailability is 55%.

**Q.** And the Cmax [20]?
**A.** Its Cmax is 509 nM.

**Q.** And the EC50 (cells)?
**A.** Its EC50 is 170 nM.

**Q.** And the half-life [21]?
**A.** The half-life was 1.1 h.

**Q.** And the bioavailability [22]?
**A.** The bioavailability was 17%.

**Q.** And the IC50 [23]?
**A.** Its IC50 is 13.3 nM.

**Q.** What about the Tmax [24] of the same molecule?
**A.** The Tmax was 2 h.

**Q.** And the clearance [25]?
**A.** The clearance was 5 mL/min/kg.

**Q.** And the half-life [26]?
**A.** Its half-life is 5.7 h.

**Q.** And the Activity (92-1 [27])?
**A.** The Activity was “Active”.

**Q.** What about the AUC(0-inf) [28] of the same molecule?
**A.** Its AUC(0-inf) is 21.4 µM·h.

**Q.** What about the pKa [29] of the same molecule?
**A.** The pKa was 9.

**Q.** What about the Activity [30] of the same molecule?
**A.** The Activity was “Non-Toxic”.

**Q.** And the Activity (92-1 [31])?
**A.** The Activity was “inactive”.

**Q.** What about the Vd [32] of the same molecule?
**A.** Its Vd is 1.4 L/kg.

**Q.** And the IC50 [33]?
**A.** Its IC50 is 2.9 nM.

**Q.** And the Cmax [34]?
**A.** Its Cmax is 667 nM.

**Q.** And the AUC(0-inf) [35]?
**A.** The AUC(0-inf) was 1.36 µM·h.

**Q.** What about the AUC(0-inf) [36] of the same molecule?
**A.** The AUC(0-inf) was 2.17 µM·h.

**Q.** What about the IC50 [37] of the same molecule?
**A.** The IC50 was 66 nM.

**Q.** With CN1CCN(c2nc(C3=C(c4c[nH]c5ccccc45)C(=O)NC3=O)c3ccccc3n2)CC1 [SOTRASTAURIN] as the molecule, how does the IC50 [4] read?
**A.** Its IC50 is 64 nM.

**Q.** What about the IC50 (SK-MEL-28) of the same molecule?
**A.** Its IC50 is greater than 10000 nM.

**Q.** What about the IC50 [38] of the same molecule?
**A.** Its IC50 is 2.1 nM.

**Q.** What about the IC50 [17] of the same molecule?
**A.** The IC50 was 6 nM.

**Q.** What about the IC50 (cells) of the same molecule?
**A.** The IC50 was 250 nM.

**Q.** And the IC50 [23]?
**A.** The IC50 was 5.9 nM.

**Q.** What about the Activity (92-1 [39]) of the same molecule?
**A.** The Activity was “Active”.

**Q.** And the IC50 [40]?
**A.** The IC50 was 0.3 nM.

**Q.** What about the IC50 [33] of the same molecule?
**A.** Its IC50 is 5.4 nM.
